Laboratory results published in patent publication US20260240761A1, “ORAL FILM UNIT DOSAGE FORM” (SWIPP AB, priority 2023, published 2026).
Counter-ions that a name gives are not always drawn.

How the values were obtained:
[1] = Solvent screening: solubility of midazolam hydrochloride in process solvents; assay type: physicochemical
Experimental: For each solvent, four test tubes were prepared, containing about 1 g solvent and midazolam hydrochloride at amounts of about 0.1 wt %, 1 wt %, 4 wt % and 7 wt %, respectively. The tubes were thoroughly mixed and were then visually observed and photographed. After 15 minutes of resting, they were again visually observed and photographed, and were then mixed again. After another 1 hour, they were finally visually observed and photographed. It was noted whether there were any undissolved solid material remaining, approximately how much, and whether it had sedimented at the bottom or formed a whitish suspension, and if that suspension was translucent or opaque. No analytical method, e.g., HPLC Assay, was used to actually quantify the precise solubilities because the main aim was just to determine whether the midazolam hydrochloride was predominately dissolved or solid, at 4 wt % and 7 wt % respectively, which represent typical levels for the midazolam hydrochloride content in a wet mix. If midazolam hydrochloride was predominately […] at 7 wt %, the solvent was deemed to be potentially very feasible.

[2] = XRPD of sedimented material from the solvent screening; assay type: physicochemical; conditions: solvent evaporated at ambient temperature
Experimental: Test tubes prepared with ethanol and ethyl acetate, respectively, corresponding to the last step in Example 14, were prepared and allowed to sediment overnight. The solvents in each sample of sedimented material were slowly evaporated off at ambient temperature and atmospheric pressure. It was then subjected to the XRPD method described in Example 12 except that only steps 1-2 of that method were performed, and that the reference “API raw material” recorded in step 1 was midazolam hydrochloride and not midazolam base.

## Cc1ncc2n1-c1ccc(Cl)cc1C(c1ccccc1F)=NC2 [midazolam hydrochloride]
[1]; 1-pentanol, 0.1 wt %
  Visual appearance at last observation: clear
[1]; 1-pentanol, 1 wt %
  Visual appearance at last observation: translucent
[1]; 1-pentanol, 4 wt %
  Visual appearance at last observation: opaque
[1]; 1-pentanol, 7 wt %
  Visual appearance at last observation: opaque
[1]; 2-propanol, 0.1 wt %
  Visual appearance at last observation: clear
[1]; 2-propanol, 1 wt %
  Visual appearance at last observation: translucent
[1]; 2-propanol, 4 wt %
  Visual appearance at last observation: opaque
[1]; 2-propanol, 7 wt %
  Visual appearance at last observation: opaque
[1]; acetone, 0.1, 1, 4 and 7 wt %
  Visual appearance at last observation: clear supernatant over sedimented
[1]; ethanol, 0.1 wt %
  Visual appearance at last observation: clear
[1]; ethanol, 1 wt %
  Visual appearance at last observation: clear
[1]; ethanol, 4 wt %
  Visual appearance at last observation: opaque
[1]; ethanol, 7 wt %
  Visual appearance at last observation: opaque
[1]; ethyl acetate, 0.1 wt %
  Visual appearance at last observation: cloudy
[1]; ethyl acetate, 1 wt %
  Visual appearance at last observation: opaque
[1]; ethyl acetate, 4 wt %
  Visual appearance at last observation: opaque
[1]; ethyl acetate, 7 wt %
  Visual appearance at last observation: opaque
[1]; in 1-pentanol
  Solubility (tentative interpretation): Solubility is between 0.1-1 wt %
[1]; in 2-propanol
  Solubility (tentative interpretation): Solubility is between 0.1-1 wt %
[1]; in acetone
  Solubility (tentative interpretation): Solubility is ≤0.1 wt %. Solvent
[1]; in ethanol
  Solubility (tentative interpretation): Solubility is between 1-4 wt %.
[1]; in ethyl acetate
  Solubility (tentative interpretation): Solubility is ≤0.1 wt %. Solvent
[1]; in isobutyl acetate
  Solubility (tentative interpretation): Solubility is ≤0.1 wt %. Solvent
[1]; in methyl acetate
  Solubility (tentative interpretation): Solubility is ≤0.1 wt %. Solvent
[1]; isobutyl acetate, 0.1 wt %
  Visual appearance at last observation: cloudy
[1]; isobutyl acetate, 1 wt %
  Visual appearance at last observation: opaque
[1]; isobutyl acetate, 4 wt %
  Visual appearance at last observation: opaque
[1]; isobutyl acetate, 7 wt %
  Visual appearance at last observation: opaque
[1]; methyl acetate, 0.1 wt %
  Visual appearance at last observation: cloudy
[1]; methyl acetate, 1 wt %
  Visual appearance at last observation: opaque
[1]; methyl acetate, 4 wt %
  Visual appearance at last observation: opaque
[1]; methyl acetate, 7 wt %
  Visual appearance at last observation: opaque
[2]; sediment from ethanol
  XRPD identity of sedimented material: a solid crystalline material that was not midazolam hydrochloride
[2]; sediment from ethyl acetate
  XRPD identity of sedimented material: appeared to be identical to midazolam hydrochloride
